Here are results for 8 compounds from patent publication US5719132A, “Compositions and methods of treating HIV with d4T, 5-fluorouracil/tegafur, and uracil” (priority 1996, dated 1998).

Where two headings read alike, the source gives them in different places.

The test system of data set [1] is clinical HIV-1 isolate JEW. As to the kind of experiment: anti-HIV activity (p24 production) in PHA-stimulated PBMC, clinical isolate JEW. Format: cell-based. To be noted: for EC50: Human immunodeficiency virus 1, PBMC, mean of three experiments; for Fold Enhancement (d4T anti-HIV activity): Table 1; for Fold Enhancement (ddI anti-HIV activity): Table 2. An excerpt:
.cndot."a" refers to the EC50 data as representing the mean values from three experiments, with duplicate determinations in each experiment.
Virus--A clinical HIV-1 isolate, JEW, was titrated with a infectivity assay [Johnson, V. A. and R. E. Byington. 1990. Infectivity assay, p. 71-76. in A. Aldovini and B. D. Walker (ed.), Techniques in HIV Research. Stockton Press, New York], and used in our experiments.
Chemicals--d4T was supplied by Bristol-Myers Squibb Company. 5-Fluorouracil(5-FU) was purchased from Sigma.
1. PBMC were infected by the clinical isolate JEW at a multiplicity of infection (MOI) of 0.001 at 37° C. for one hour, and then resuspended in RPMI 1640 medium (Gibco, Gaithersburg, Md.) containing 20% fetal bovine serum (FBS, Sigma), 1 ng/ml IL-2 and 2 mM L-glutamine (Gibco) at a concentration of 4×10^6 cells/ml.
2. d4T (2 μM) or ddI (40 μM) was serially diluted 1:3 into RPMI 1640 medium with a final volume of 100 μl/well in 96-well plates, and 50 μl of 2.0 μM, 0.8 μM and 0 μM 5-FU were then added to each well.
3. 50 μl of 4×10^6 / ml infected PBMC were added to each well in these plates to get a final 1×10^6 cells/ml, and incubated at 37° C.
4. Half media (100 μl) from each well were removed and replaced with fresh medium containing same concentrations of drug at day 3 or 4.
5. Samples were collected at day 7 and the p24 levels were quantitated using a HIV p24 ELISA kit (Dupont, Boston, Mass.).

Data set [2] has as its system clinical HIV isolate OLR. The data set is described as follows: anti-HIV activity in PBMC, clinical isolate OLR. It is filed as cell-based. The note with it: with 0.1 μM 5-FU.
Procedure: The 50% cytotoxicity concentration of 5-FU in PHA--PBMC is approximately 9 μM (i.e. micromolar) as determined by trypan blue staining.
The subject of data set [3] is HIV-1 reverse transcriptase. The note with it: in vitro; cited from earlier work.
For data set [4] the following is noted: clinical studies; cited from earlier work.
The subject of data set [5] is HIV. To be noted: cited from earlier work.
Data set [6] has as its system human immunodeficiency virus (HIV). The note with it: cited from earlier work.
The conditions of data set [7]: cited from earlier work.
The subject of data set [8] is HIV. To be noted: 20 patients treated for up to 24 months; cited from earlier work.
The test system of data set [9] is thymidylate synthetase (TS). To be noted: cited from earlier work.
For data set [10] the following is noted: in vivo; cited from earlier work.
Data set [11] in a line: in vitro. To be noted: human, pha-stimulated pbmc.
Procedure: (§1) Cells--Peripheral blood mononuclear cells (PBMC) from normal individuals were prepared by Ficoll-Hypaque gradient centrifugation of venous blood with citrate as an anticoagulant and stimulated with phytoagglutinin (PHA--P, 4 μg/ml, Sigma Chemical, St. Louis, Mo.) and interleukin-2 (IL-2, 1 ng/ml, Upstate Biotechnology Inc., Lake Placid, N.Y.) for three days.
(§2) To determine the cytotoxicity of 5-FU, uninfected PBMC were incubated with a series of concentrations of 5-FU (i.e., 0.04, 0.16, 0.63, 2.5 and 10 μM). To determine whether 5-FU can affect the cytotoxicity of d4T, uninfected PBMC were incubated with a series of concentrations of d4T (i.e., 0.8, 3.1, 12.5, 50 and 200 μM) containing 0.02 μM of 5-FU. This was repeated with d4T using 5-FU concentrations of 0.1 μM and 0.5 μM, respectively. Cell viability was monitored by trypan blue exclusion assay. Results were expressed as a percentage of living cells in drug testing wells compared to those in untreated control wells. The 50% cytotoxic concentration (CC50) was calculated as the concentration of drugs that decreased the percentage of living cells in drug-treated wells to 50% of those in untreated wells.
In data set [12] the test system is PHA-PBMC. As to the kind of experiment: cytotoxicity in PBMC by trypan blue exclusion.
Procedure: as §1, §2
The subject of data set [13] is HIV. To be noted: lowering of endogenous dATP; cited from earlier work.
Data set [14] deals with degradation of 5-fluorouracil. To be noted: in vitro; cited from earlier work.

On to `Cc1cn([C@H]2C=C[C@@H](CO)O2)c(=O)[nH]c1=O` [d4T, 2',3'-didehydro-3'-deoxythymidine], for which the EC50 (in general, the concentration at which the effect is half-maximal) turned out to be 98 ± 42 nM in [1] (read-out: EC50 of d4T, PHA-stimulated PBMC, isolate JEW, 5-FU 0 μM); 92 ± 39 nM in data set [1] (read-out: EC50 of d4T, PHA-stimulated PBMC, isolate JEW, with 5-FU 0.2 μM); 27 ± 15 nM in data set [1] (read-out: EC50 of d4T, PHA-stimulated PBMC, isolate JEW, with 5-FU 0.5 μM). Besides, the “fold enhancement of the anti-HIV activity of d4T” value in data set [1] (with 0.5 μM 5-FU, isolate JEW) was at most 4 fold. Further, the figures for the “Fold Enhancement (d4T anti-HIV activity)” value in data set [1] (with 5-FU 0.2 μM) and in data set [1] (with 5-FU 0.5 μM) were 1 X and 4 X, respectively. For the same compound, the “fold enhancement of d4T activity” value in data set [2] was 4.5 fold. Moreover, the “inhibition of HIV-1 reverse transcriptase” value in [3] is given as “potent inhibitor”. Further, the oral bioavailability entry in data set [4] was “greater than 80%”. For the same compound, in [5] (duration of anti-viral responses in patients), the “time until CD4 counts and serum p24 levels return to baseline” value is recorded as “approximately 6 months”. In [5] (treated patients), the CD4 counts result is on record as “increases in CD4 counts”. In addition, the “serum p24 levels and infectious HIV titers in PBMC” value in [5] (treated patients) was “decreases in both serum p24 levels and infectious HIV titers”. Also, in [6], the “antiviral activity against HIV” value was “demonstrated antiviral activity”. The dose-limiting toxicity result in [7] (clinical studies) is “peripheral neuropathy”. The undesirable side effects result in data set [7] (human, in vivo) is recorded as “peripheral neuropathy”. Besides, the resistant viruses isolated result in data set [8] is “no resistant viruses can be isolated”.

As to `Nc1ccn([C@H]2C=C[C@@H](CO)O2)c(=O)n1` [d4C, 2',3'-dideoxycytidin-2'-ene], the “antiviral activity against HIV” value in [6] is “demonstrated antiviral activity”.

For `O=c1[nH]cc(F)c(=O)[nH]1` [5-FU, 5-fluorouracil], the “potentiating effect on the anti-HIV activity of ddI” value in data set [1] (up to 0.5 μM 5-FU, PBMC) is recorded as “no potentiating effect”. Besides, in data set [1] (up to 0.5 μM, PHA-PBMC acutely infected by isolate JEW), the antiviral activity alone entry is “no antiviral activity”. Moreover, the TS inhibition entry in data set [9] is given as “effective TS inhibitor”. For the same compound, the half-life result in data set [10] was “very short half-life”. The same compound returned a CC50 in data set [11] of around 9000 nM. For the same compound, the “toxicity to PBMC” value in [12] (up to 0.5 μM) is on record as “non-toxic”. In data set [12] (up to 0.5 μM 5-FU, PBMC), the “potentiating effect on d4T cytotoxicity” value was “no potentiating effect”.

Turning to `NC(=O)NO` [hydroxyurea], the “effect of hydroxyurea on anti-HIV activity of ddI” value in [13] was “enhanced anti-HIV activity of ddI”.

For the compound `Nc1ncnc2c1ncn2[C@H]1CC[C@@H](CO)O1` [ddA, 2',3'-dideoxyadenosine], the “antiviral activity against HIV” value in data set [6] was “demonstrated antiviral activity”.

Turning to `O=c1cc[nH]c(=O)[nH]1` [uracil], the “inhibition of degradation of 5-fluorouracil” value in data set [14] is recorded as “strongly inhibits the degradation of 5-fluorouracil”.

Consider `Nc1ccn([C@H]2CC[C@@H](CO)O2)c(=O)n1` [ddC, 2',3'-dideoxycytidine], for which the “antiviral activity against HIV” value in data set [6] is given as “demonstrated antiviral activity”.

Regarding `OC[C@@H]1CC[C@H](n2cnc3c(O)ncnc32)O1` [ddI, 2',3'-dideoxyinosine], the concentration for a half-maximal effect (EC50) in data set [1] (PHA-stimulated PBMC, isolate JEW, 5-FU 0 μM, read-out: EC50 of ddI) amounted to 100 ± 32 nM; in data set [1] (PHA-stimulated PBMC, isolate JEW, with 5-FU 0.2 μM, read-out: EC50 of ddI), 170 ± 2 nM. The entries for the “Fold Enhancement (ddI anti-HIV activity)” value in data set [1] (with 5-FU 0.2 μM) and in data set [1] (with 5-FU 0.5 μM) were 0.6 X and 0.7 X, respectively. The “antiviral activity against HIV” value in data set [6] was “demonstrated antiviral activity”.
